Test results as given in US20150094474A1, “AGRICULTURAL CHEMICALS” (Redx Pharma Ltd., priority 2012, published 2015).

Key:
[1] = tested on: Chinese cabbage; assay: Herbicidal bioassay, Chinese cabbage (% necrosis); assay type: in vivo
Method: A laboratory bioassay was conducted to screen ten compounds (Fluazifop (25); Ethyl fluazifop (62); five fluazifop analogues: 27, 28, 63, 64 and 65; mesofulfuron (6); and two mesosulfuron analogues: 8 and 61. for activity against Lolium perenne, barley, peas and Chinese cabbage. Compounds were diluted in DMSO. Controls were performed using both DMSO and water.
Plants were obtained as seeds and were grown to the 2-4 true leaf stage. Plants were grown individually in seed trays. Each plant (in an approximately 3 cm diameter plug) was then detached from the tray for spraying. Environmental conditions were closely monitored and recorded and were within the optimal range of the target species.
The compounds were screened at a range of six concentrations, eg. 0.05%, 0.01%, 0.005%, 0.001%, 0.0005% and 0.0001%. Treatments will be applied directly onto the plants, using a potter tower.
One plant of each type will be sprayed using a potter tower. The 4 different types of weeds will be placed in a 10 cm diameter area underneath the potter sprayer and sprayed simultaneously. The growth of the plants and any Phytotoxicity effects will then be assessed at specified growth intervals, according to EPPO guideline PP1/135. Five replicates will be performed for each treatment, for each species.

[2] = tested on: peas; assay: Herbicidal bioassay, peas (% necrosis); assay type: in vivo
Method in brief: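 Lolium perenne, barley, peas and Chinese cabbage at 2-4 true leaf stage sprayed simultaneously with a Potter tower, compounds in DMSO at six concentrations (0.05% to 0.0001%). Phytotoxicity scored as % necrosis per EPPO PP1/135 at set intervals; five replicates per treatment and species; DMSO and water controls.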

CCOC(=O)C(C)Oc1ccc(Oc2ccc(C(F)(F)F)cn2)cc1 (stereo not drawn) [Fluazifop Ethyl ester (62)]
Sum of % necrosis in Chinese cabbage ([1]; Dose 0.00005, Day 0): C (less than 50% necrosis)
Sum of % necrosis in Chinese cabbage ([1]; Dose 0.00005, Day 1): C (less than 50% necrosis)
Sum of % necrosis in Chinese cabbage ([1]; Dose 0.00005, Day 3): C (less than 50% necrosis)
Sum of % necrosis in Chinese cabbage ([1]; Dose 0.00005, Day 7): B (50%-80% necrosis)
Sum of % necrosis in Chinese cabbage ([1]; Dose 0.00005, Day 10): A (over 80% necrosis)
Sum of % necrosis in Chinese cabbage ([1]; Dose 0.00005, Day 14): A (over 80% necrosis)
Sum of % necrosis in Chinese cabbage ([1]; Dose 0.00005, Day 21): A (over 80% necrosis)
Sum of % necrosis in Chinese cabbage ([1]; Dose 0.0001, Day 0): C (less than 50% necrosis)
Sum of % necrosis in Chinese cabbage ([1]; Dose 0.0001, Day 1): C (less than 50% necrosis)
Sum of % necrosis in Chinese cabbage ([1]; Dose 0.0001, Day 3): C (less than 50% necrosis)
Sum of % necrosis in Chinese cabbage ([1]; Dose 0.0001, Day 7): B (50%-80% necrosis)
Sum of % necrosis in Chinese cabbage ([1]; Dose 0.0001, Day 10): A (over 80% necrosis)
Sum of % necrosis in Chinese cabbage ([1]; Dose 0.0001, Day 14): A (over 80% necrosis)
Sum of % necrosis in Chinese cabbage ([1]; Dose 0.0001, Day 21): A (over 80% necrosis)
Sum of % necrosis in Chinese cabbage ([1]; Dose 0.0005, Day 0): C (less than 50% necrosis)
Sum of % necrosis in Chinese cabbage ([1]; Dose 0.0005, Day 1): C (less than 50% necrosis)
Sum of % necrosis in Chinese cabbage ([1]; Dose 0.0005, Day 3): B (50%-80% necrosis)
Sum of % necrosis in Chinese cabbage ([1]; Dose 0.0005, Day 7): A (over 80% necrosis)
Sum of % necrosis in Chinese cabbage ([1]; Dose 0.0005, Day 10): A (over 80% necrosis)
Sum of % necrosis in Chinese cabbage ([1]; Dose 0.0005, Day 14): A (over 80% necrosis)
Sum of % necrosis in Chinese cabbage ([1]; Dose 0.0005, Day 21): A (over 80% necrosis)
Sum of % necrosis in Peas ([2]; Dose 0.000001, Day 0): C (less than 50% necrosis)
Sum of % necrosis in Peas ([2]; Dose 0.000001, Day 1): C (less than 50% necrosis)
Sum of % necrosis in Peas ([2]; Dose 0.000001, Day 3): C (less than 50% necrosis)
Sum of % necrosis in Peas ([2]; Dose 0.000001, Day 7): C (less than 50% necrosis)
Sum of % necrosis in Peas ([2]; Dose 0.000001, Day 10): C (less than 50% necrosis)
Sum of % necrosis in Peas ([2]; Dose 0.000001, Day 14): C (less than 50% necrosis)
Sum of % necrosis in Peas ([2]; Dose 0.000001, Day 21): C (less than 50% necrosis)
Sum of % necrosis in Peas ([2]; Dose 0.000005, Day 0): C (less than 50% necrosis)
Sum of % necrosis in Peas ([2]; Dose 0.000005, Day 1): C (less than 50% necrosis)
Sum of % necrosis in Peas ([2]; Dose 0.000005, Day 3): C (less than 50% necrosis)
Sum of % necrosis in Peas ([2]; Dose 0.000005, Day 7): C (less than 50% necrosis)
Sum of % necrosis in Peas ([2]; Dose 0.000005, Day 10): C (less than 50% necrosis)
Sum of % necrosis in Peas ([2]; Dose 0.000005, Day 14): B (50%-80% necrosis)
Sum of % necrosis in Peas ([2]; Dose 0.000005, Day 21): B (50%-80% necrosis)
Sum of % necrosis in Peas ([2]; Dose 0.00001, Day 0): C (less than 50% necrosis)
Sum of % necrosis in Peas ([2]; Dose 0.00001, Day 1): C (less than 50% necrosis)
Sum of % necrosis in Peas ([2]; Dose 0.00001, Day 3): C (less than 50% necrosis)
Sum of % necrosis in Peas ([2]; Dose 0.00001, Day 7): C (less than 50% necrosis)
Sum of % necrosis in Peas ([2]; Dose 0.00001, Day 10): B (50%-80% necrosis)
Sum of % necrosis in Peas ([2]; Dose 0.00001, Day 14): A (over 80% necrosis)
Sum of % necrosis in Peas ([2]; Dose 0.00001, Day 21): A (over 80% necrosis)
Sum of % necrosis in Peas ([2]; Dose 0.00005, Day 0): C (less than 50% necrosis)
Sum of % necrosis in Peas ([2]; Dose 0.00005, Day 1): C (less than 50% necrosis)
Sum of % necrosis in Peas ([2]; Dose 0.00005, Day 3): C (less than 50% necrosis)
Sum of % necrosis in Peas ([2]; Dose 0.00005, Day 7): C (less than 50% necrosis)
Sum of % necrosis in Peas ([2]; Dose 0.00005, Day 10): B (50%-80% necrosis)
Sum of % necrosis in Peas ([2]; Dose 0.00005, Day 14): A (over 80% necrosis)
Sum of % necrosis in Peas ([2]; Dose 0.00005, Day 21): A (over 80% necrosis)
Sum of % necrosis in Peas ([2]; Dose 0.0001, Day 0): C (less than 50% necrosis)
Sum of % necrosis in Peas ([2]; Dose 0.0001, Day 1): C (less than 50% necrosis)
Sum of % necrosis in Peas ([2]; Dose 0.0001, Day 3): C (less than 50% necrosis)
Sum of % necrosis in Peas ([2]; Dose 0.0001, Day 7): C (less than 50% necrosis)
Sum of % necrosis in Peas ([2]; Dose 0.0001, Day 10): B (50%-80% necrosis)
Sum of % necrosis in Peas ([2]; Dose 0.0001, Day 14): A (over 80% necrosis)
Sum of % necrosis in Peas ([2]; Dose 0.0001, Day 21): A (over 80% necrosis)
Sum of % necrosis in Peas ([2]; Dose 0.0005, Day 0): C (less than 50% necrosis)
Sum of % necrosis in Peas ([2]; Dose 0.0005, Day 1): C (less than 50% necrosis)
Sum of % necrosis in Peas ([2]; Dose 0.0005, Day 3): C (less than 50% necrosis)
Sum of % necrosis in Peas ([2]; Dose 0.0005, Day 7): C (less than 50% necrosis)
Sum of % necrosis in Peas ([2]; Dose 0.0005, Day 10): C (less than 50% necrosis)
Sum of % necrosis in Peas ([2]; Dose 0.0005, Day 14): C (less than 50% necrosis)
Sum of % necrosis in Peas ([2]; Dose 0.0005, Day 21): A (over 80% necrosis)
